Measurements published in patent US6872729B2, “Pyrimidinylbenzimidazole and triazinylbenzimidazole derivatives and agricultural/horticultural fungicides” (Kumiai Chemical Industry Co., Ltd., priority 1998, dated 2005).

Assays:
Erysiphe graminis = assay: Test for preventive effect on wheat powdery mildew; assay type: in vivo; settings: wheat (Norin-61-go) seedlings, 500 ppm active ingredient, preventive treatment; diseased area of first leaves 10 days after inoculation with Erysiphe graminis
How it was run: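 Wheat seedlings (Norin-61-go), grown 8 days, were sprayed with wettable-powder solutions at 500 ppm active ingredient, air-dried, then inoculated by sprinkling Erysiphe graminis spores. Plants were kept at 20-25° C. Diseased area on first leaves was scored 10 days post-inoculation against a rating standard.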

Structure (SMILES)	Biological effectiveness (Erysiphe graminis)	melting point
COc1nc(OC)nc(-n2c(N)nc3cc(Cl)ccc32)n1 [Compound I-368, 2-amino-5-chloro-1-(4,6-dimethoxy-[1,3,5]triazin-2-yl)benzimidazole]	B (Diseased area of less than 25%)	293 to 296 °C
COc1nc(OC)nc(-n2c(C(F)(F)F)nc3cc(C)ccc32)n1 [Compound I-312, 1-(4,6-dimethoxy-[1,3,5]triazin-2-yl)-5-methyl-2-trifluoromethylbenzimidazole]	A (No diseased area)	137 to 140 °C
COc1nc(OC)nc(-n2c(C)nc3cc(Cl)ccc32)n1 [Compound I-215, 5-chloro-1-(4,6-dimethoxy-[1,3,5]triazin-2-yl)-2-methylbenzimidazole]	A (No diseased area)	173 to 176 °C
Cc1nc2ccccc2n1-c1nc(Cl)nc(Cl)n1 [Compound I-1066, 1-(4,6-dichloro-[1,3,5]triazin-2-yl)-2-methylbenzimidazole]	–	> 300 °C
COc1ccnc(-n2cnc3ccccc32)n1 [Compound I-667, 1-(4-methoxypyrimidin-2-yl)-benzimidazole]	B (Diseased area of less than 25%)	114 to 116 °C
COc1cc(OC)nc(-n2c(S(C)(=O)=O)nc3ccccc32)n1 [Compound I-5, 1-(4,6-dimethoxypyrimidin-2-yl)-2-methylsulfonylbenzimidazole]	–	114 to 117 °C
COc1cc(OC)nc(-n2c(C)nc3cc(C)ccc32)n1 [Compound I-186, 1-(4,6-dimethoxypyrimidin-2-yl)-2,5-dimethylbenzimidazole]	A (No diseased area)	163 to 166 °C
COc1cc(OC)nc(-n2c(OC)nc3ccccc32)n1 [Compound I-18, 1-(4,6-dimethoxypyrimidin-2-yl)-2-methoxybenzimidazole]	–	121 to 122 °C
CSc1nc(SC)nc(-n2c(C)nc3ccccc32)n1 [Compound I-1042, 1-(4,6-dimethylthio-[1,3,5]triazin-2-yl)-2-methylbenzimidazole]	–	176 to 179 °C
COc1cc(OC)nc(-n2c(N)nc3cc(C)ccc32)n1 [Compound I-362, 2-amino-1-(4,6-dimethoxypyrimidin-2-yl)-5-methylbenzimidazole]	A (No diseased area)	> 300 °C
COc1cc(OC)nc(-n2c(C(F)(F)F)nc3cc(C)ccc32)n1 [Compound I-298, 1-(4,6-dimethoxypyrimidin-2-yl)-5-methyl-2-trifluoromethylbenzimidazole]	A (No diseased area)	93 to 96 °C
COc1cc(OC)nc(-n2c(C(Cl)(Cl)Cl)nc3ccc(C)cc32)n1 [Compound I-404]	B (Diseased area of less than 25%)	–
COc1cc(OC)nc(-n2c(Cl)nc3ccc(Cl)cc32)n1 [Compound I-271]	A (No diseased area)	–
COc1cc(OC)nc(-n2c(C)nc3ccc(Cl)cc32)n1 [Compound I-201]	A (No diseased area)	–
COc1nc(C2CC2)nc(-n2c(C(F)(F)F)nc3cc(C)ccc32)n1 [Compound I-1022]	A (No diseased area)	–
C#CCOc1cc(C)nc(-n2c(N)nc3cc(C)ccc32)n1 [Compound I-904]	B (Diseased area of less than 25%)	–
CCc1cc(C)nc(-n2c(C)nc3cc(Cl)ccc32)n1 [Compound I-1088]	A (No diseased area)	–
COc1nc(OC)nc(-n2c(C)nc3cc(C(=O)c4ccccc4)ccc32)n1 [Compound I-235]	A (No diseased area)	–
CC(C)Oc1nc(OC(C)C)nc(-n2c(C(F)(F)F)nc3cc(Cl)ccc32)n1 [Compound I-595]	B (Diseased area of less than 25%)	–
COc1cc(OC)nc(-n2cnc3cc(C#N)ccc32)n1 [Compound I-111]	B (Diseased area of less than 25%)	–
Cc1ccc2c(c1)nc(C)n2-c1nc(C)cc(C2CC2)n1 [Compound I-1103]	B (Diseased area of less than 25%)	–

Structure (SMILES)	Biological effectiveness (Erysiphe graminis)	melting point
COc1cc(OC)nc(-n2c(SC)nc3ccccc32)n1 [Compound I-4, 1-(4,6-dimethoxypyrimidin-2-yl)-2-methylthiobenzimidazole]	–	135 to 137 °C
COc1nc(C)nc(-n2c(N)nc3cc(C)ccc32)n1 [Compound I-767]	B (Diseased area of less than 25%)	–
COc1cc(OC)nc(-n2c(C)nc3cc(Cl)c(Cl)cc32)n1 [Compound I-209]	B (Diseased area of less than 25%)	–
CCOc1cc(C)nc(-n2cnc3cc(C)ccc32)n1 [Compound I-772]	A (No diseased area)	–
CCCc1cc(OC)nc(-n2c(C)nc3ccccc32)n1 [Compound I-959]	A (No diseased area)	–
COc1nc(OC)nc(-n2cnc3cc(Br)ccc32)n1 [Compound I-131]	A (No diseased area)	–
CCc1nc2cc(Cl)ccc2n1-c1nc(OC)cc(OC)n1 [Compound I-333]	A (No diseased area)	–
COc1nc(OC)nc(-n2c(Cl)nc3cc(Cl)ccc32)n1 [Compound I-277, 2,5-dichloro-1-(4,6-dimethoxy-[1,3,5]triazin-2-yl)benzimidazole]	B (Diseased area of less than 25%)	146 to 149 °C
COc1nc(OC)nc(-n2c(N(C)C)nc3cc(Cl)ccc32)n1 [Compound I-376]	B (Diseased area of less than 25%)	–
Cc1cc(C2CC2)nc(-n2c(C)nc3cc(Cl)ccc32)n1 [Compound I-1104]	B (Diseased area of less than 25%)	–
COc1cc(OC)nc(-n2c(C(F)(F)F)nc3cc(Cl)ccc32)n1 [Compound I-296]	A (No diseased area)	–
COc1nc(OC)nc(-n2cnc3cc(C)c(C)cc32)n1 [Compound I-176]	A (No diseased area)	–
COc1cc(OC)nc(-n2c(Cl)nc3cc(C)ccc32)n1 [Compound I-258, 2-chloro-1-(4,6-dimethoxypyrimidin-2-yl)-5-methylbenzimidazole]	A (No diseased area)	145 to 148 °C
CCc1ccc2c(c1)nc(C(F)(F)F)n2-c1nc(OC)nc(OC)n1 [Compound I-313]	A (No diseased area)	–
CCc1nc2cc(F)ccc2n1-c1nc(OC)cc(OC)n1 [Compound I-332]	B (Diseased area of less than 25%)	–
COc1nc(OC)nc(-n2c(C)nc3cc(C)ccc32)n1 [Compound I-218]	A (No diseased area)	–
COc1cc(OC)nc(-n2c(C)nc3cc(Cl)ccc32)n1 [Compound I-184]	A (No diseased area)	–
CCc1ccc2c(c1)ncn2-c1nc(OC)nc(OC)n1 [Compound I-134]	A (No diseased area)	–
COc1ccnc(-n2c(C(F)(F)F)nc3cc(C)ccc32)n1 [Compound I-683]	A (No diseased area)	–
COc1cc(OC)nc(-n2c(Cl)nc3cc(F)ccc32)n1 [Compound I-255]	A (No diseased area)	–
